According to patent US6649603B2, “Cyclylamine sulfonamides as β3-adrenergic receptor agonists” (Wyeth, priority 2000, dated 2003):

Legend:
[1] = target: T1, human β3 adrenergic receptor (Homo sapiens, UniProt P13945); assay: cAMP accumulation (SPA) in CHO cells transfected with human β3 adrenergic receptor; type: cell-based; settings: for EC50 / beta-3 IA (maximal response relative to isoproterenol at 10^-5 M): CHO cells, cAMP; for EC50: 30 min incubation, read-out: beta-3 EC50; for beta-3 IA (maximal response relative to isoproterenol at 10^-5 M): fraction of maximal isoproterenol response
T1 construct: Full length β3 AR clones (402 amino acids) containing the last 6 amino acids of hβ3_AR are prepared; expressed in transfected cells; host or cells: CHO cells
Description: (§1) The ability of compounds of this invention to treat or inhibit disorders related to insulin resistance or hyperglycemia was established with representative compounds of this invention in the following standard pharmacological test procedures, which measured the binding selectivity to the β1, β2, and β3 adrenergic receptors. Binding to the receptors was measured in Chinese Hamster ovary (CHO) cells that were transfected with adrenergic receptors. The following briefly summarizes the procedures used and results obtained.
Cloning of Human β3-AR Genomic DNA: cDNA was constructed by ligating four polymerase chain reaction (PCR) products using the following primers: an ATG-NarI fragment, sense primer 5′-[…]3′ and anti-sense primer 5′[…]3′; a NarI-AccI fragment, 5′[…]3′ as sense and 5′[…]3′ as anti-sense primer; an Accli-Styl fragment, sense primer 5′[…]3′ and anti-sense primer 5′[…]3′ and a Styl-TAG fragment, with sense primer 5′[…]3′ and anti-sense primer 5′[…]3′. The corresponding primer sequences are described in Mantzoros, C. S., et.al., Diabetes 45: 909-914 (1996). The four fragments are ligated into a pUC 18 plasmid (Gibco-BRL) and sequenced. Full length β3 AR clones (402 amino acids) containing the last 6 amino acids of hβ3_AR are prepared with the β3-βARpcDNA3 from ATTC.
(§2) Binding Procedure: Clones expressing receptor levels of 70 to 110 fmoles/mg protein were used in the test procedures. CHO cells were grown in 24-well tissue culture plates in Dulbecco's Modified Eagle Media with 10% fetal bovine serum, MEM non-essential amino acids, Penicillin-Streptompycin and Geneticin. On the day of test procedure, growth medium was replaced with preincubation media (Dulbecco's Modified Eagle Media and incubated for 30 minutes at 37° C. Preincubation medium was replaced with 0.2 ml treatment medium containing DMEM media containing 250 μM IBMX (isobutyl-1-methylxantine) plus 1 mM ascorbic acid with test compound dissolved in DMSO. Test compounds were tested over a concentration range of 10^−9 M to 10^−5 M for β3 cells and 10^−8 to 10^−4 M for β1 and β2 transfected cells. Isoproterenol (10^−5 M) was used as an internal standard for comparison of activity. Cells were incubated at 37° C. on a rocker for 30 min with the β3 cells and 15 min for […]. Incubation was stopped with the addition of 0.2N HCl and neutralized with 2.5N NaOH. The plates, containing the cells and neutralized media, were stored at −20 degrees celsius until ready to test for cAMP using the SPA test kit (Amersham).
(§3) Data Analysis and Results: Data collected from the SPA test procedure were analyzed as per cent of the maximal isoproterenol response at 10^−5 M. Activity curves were plotted using the SAS statistical and graphics software. EC50 values were generated for each compound and the maximal response (IA) developed for each compound is compared to the maximal response of isoproternol at 10^−5 M from the following formula: [formula]

[2] = target: T2, human β2-adrenergic receptor (Homo sapiens, UniProt P07550); assay: cAMP accumulation (SPA) in CHO cells transfected with human β2 adrenergic receptor; type: cell-based; settings: for beta-2 IA (maximal response relative to isoproterenol at 10^-5 M): fraction of maximal isoproterenol response
T2 construct: expressed in transfected cells; host or cells: CHO cells
Description: as §1
(§4) Transfection of CHO cells with β1 and β2 adrenergic receptors: CHO cells were transfected with human β1- or β2-adrenergic receptors as described in Tate, K. M., Eur. J. Biochem., 196:357-361 (1991).
as §2, §3

[3] = target: T3, human β1-adrenergic receptor (Homo sapiens, UniProt P08588); assay: cAMP accumulation (SPA) in CHO cells transfected with human β1 adrenergic receptor; type: cell-based; settings: for beta-1 IA (maximal response relative to isoproterenol at 10^-5 M): fraction of maximal isoproterenol response
T3 construct: expressed in transfected cells; host or cells: CHO cells
Description: as §1, §4, §2, §3

T2 sequence (P07550 whole entry): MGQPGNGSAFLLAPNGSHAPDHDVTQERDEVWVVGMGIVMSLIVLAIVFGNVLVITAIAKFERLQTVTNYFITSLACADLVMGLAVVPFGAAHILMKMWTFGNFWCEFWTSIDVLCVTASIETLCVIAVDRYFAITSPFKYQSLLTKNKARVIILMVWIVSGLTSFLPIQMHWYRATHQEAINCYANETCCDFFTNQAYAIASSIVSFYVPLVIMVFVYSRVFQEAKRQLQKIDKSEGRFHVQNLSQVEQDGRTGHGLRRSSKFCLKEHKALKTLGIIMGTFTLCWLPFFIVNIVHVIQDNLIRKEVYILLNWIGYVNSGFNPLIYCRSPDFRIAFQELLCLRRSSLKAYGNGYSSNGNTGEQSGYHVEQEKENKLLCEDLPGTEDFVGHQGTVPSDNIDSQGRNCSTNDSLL
T1 sequence (P13945 whole entry): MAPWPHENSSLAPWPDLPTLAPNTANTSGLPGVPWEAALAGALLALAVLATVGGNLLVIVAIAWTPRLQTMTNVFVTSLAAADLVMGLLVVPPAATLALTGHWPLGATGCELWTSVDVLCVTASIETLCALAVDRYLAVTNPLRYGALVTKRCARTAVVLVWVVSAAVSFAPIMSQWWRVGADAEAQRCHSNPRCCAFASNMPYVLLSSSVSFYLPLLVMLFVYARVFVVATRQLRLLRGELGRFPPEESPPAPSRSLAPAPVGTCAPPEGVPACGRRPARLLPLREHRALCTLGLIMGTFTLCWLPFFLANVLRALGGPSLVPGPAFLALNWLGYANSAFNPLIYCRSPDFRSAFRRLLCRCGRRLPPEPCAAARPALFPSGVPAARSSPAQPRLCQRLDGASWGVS
T3 sequence (P08588 whole entry): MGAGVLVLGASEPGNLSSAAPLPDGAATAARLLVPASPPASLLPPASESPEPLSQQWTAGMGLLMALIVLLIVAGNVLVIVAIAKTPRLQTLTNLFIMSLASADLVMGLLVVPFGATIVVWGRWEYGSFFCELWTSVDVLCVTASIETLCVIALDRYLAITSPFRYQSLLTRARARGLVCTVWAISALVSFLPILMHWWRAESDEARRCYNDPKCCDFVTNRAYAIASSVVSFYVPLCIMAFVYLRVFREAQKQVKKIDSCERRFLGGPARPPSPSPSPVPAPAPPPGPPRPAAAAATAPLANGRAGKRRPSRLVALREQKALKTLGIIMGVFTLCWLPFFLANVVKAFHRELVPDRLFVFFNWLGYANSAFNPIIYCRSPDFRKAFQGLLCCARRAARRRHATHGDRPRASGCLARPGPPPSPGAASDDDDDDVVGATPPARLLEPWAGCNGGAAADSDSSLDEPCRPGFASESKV

Row | SMILES | EC50 [1] | beta-3 IA (maximal response relative to isoproterenol at 10^-5 M) [1] | beta-2 IA (maximal response relative to isoproterenol at 10^-5 M) [2] | beta-1 IA (maximal response relative to isoproterenol at 10^-5 M) [3] | melting point | beta-3 activity at single concentration ([1]; at 10 μM, per cent of maximal isoproterenol response) | EC50 ([2]; read-out: beta-2 EC50) | EC50 ([3]; read-out: beta-1 EC50)
1 | COc1ccc(S(=O)(=O)N2CCC(NC[C@H](O)COc3cccc4[nH]c(=O)[nH]c34)CC2)cc1OC [Example 20, 4-{(2S)-3-[1-(3,4-Dimethoxy-benzenesulfonyl)-piperidin-4-ylamino]-2-hydroxy-propoxy}-1,3-dihydro-benzoimidazol-2-one] | 80 nM | 0.87 | (0.01) | (0.3) |  |  |  | 
2 | CCCCOc1ccc(S(=O)(=O)N2CC(NCC(O)COc3cccc4[nH]c5ccccc5c34)C2)cc1 (stereo not shown) [Example 3, 1-[1-(4-Butoxy-benzenesulfonyl)-azetidin-3-ylamino]-3-(9H-carbazol-4-yloxy)-propan-2-ol] |  |  |  |  | 81 to 84 °C |  |  | 
3 | COc1ccc(S(=O)(=O)N2CCC(NC[C@H](O)COc3cccc4[nH]c5ccccc5c34)CC2)cc1 [Example 15, (2S)-1-(9H-Carbazol-4-yloxy)-3-[1-(4-methoxy-benzenesulfonyl)-piperidin-4-ylamino]-propan-2-ol] | 60 nM | 0.88 | (0.03) | (0.1) |  |  |  | 
4 | CCCCOc1ccc(S(=O)(=O)N2CCC(NC[C@H](O)COc3cccc4[nH]c5ccccc5c34)C2)cc1 (stereo partly drawn) [Example 7, (2S)-1-[1-(4-Butoxy-benzenesulfonyl)-pyrrolidin-3-ylamino]-3-(9H-carbazol-4-yloxy)-propan-2-ol] |  |  |  |  | 118 to 119 °C |  |  | 
5 | CS(=O)(=O)Nc1cc(C(O)CNC2CCN(S(=O)(=O)c3ccc4oc5ccccc5c4c3)CC2)ccc1O (stereo not shown) [Example 23, N-(5-(2-[1-(Dibenzofuran-2-sulfonyl)-piperidin-4-ylamino]-1-hydroxy-ethyl}-2-hydroxy-phenyl)-methanesulfonamide] | 100 nM | 0.88 |  |  |  |  |  | 
6 | O=c1[nH]c2cccc(OC[C@@H](O)CNC3CCN(S(=O)(=O)c4cccc5nsnc45)CC3)c2[nH]1 [Example 8, 4-{(2S)-3-[1-(Benzo[1,2,5]thiadiazole-4-sulfonyl)-piperidin-4-ylamino]-2-hydroxy-propoxy}-1,3-dihydro-benzoimidazol-2-one] | 800 nM | 0.75 |  |  |  |  |  | 
7 | COc1ccc(S(=O)(=O)N2CCC(NC[C@H](O)COc3cccc4[nH]c5ccccc5c34)CC2)cc1OC [Example 21, (2S)-1-(9H-Carbazol-4-yloxy)-3-[1-(3,4-dimethoxy-benzenesulfonyl)-piperidin-4-ylamino]-propan-2-ol] | 20 nM | 1.2 | (0.02) | (0.1) |  |  |  | 
8 | CCCCOc1ccc(S(=O)(=O)N2CCC(NCC(O)c3ccc(O)c(NS(C)(=O)=O)c3)C2)cc1 (stereo not shown) [Example 6, N-(5-{2-[1-(4-Butoxy-benzenesulfonyl)-pyrrolidin-3-ylamino]-1-hydroxy-ethyl}-2-hydroxy-phenyl)-methanesulfonamide] |  |  |  |  | 95 to 98 °C |  |  | 
9 | CCCCOc1ccc(S(=O)(=O)N2CCC(NC[C@H](O)COc3cccc4[nH]c5ccccc5c34)CC2)cc1 [Example 14, (2S)-1-[1-(4-Butoxy-benzenesulfonyl)-piperidin-4-ylamino]-3-(9H-carbazol-4-yloxy)-propan-2-ol] | 850 nM | 0.74 | (0.07) | (0.04) |  |  |  | 
10 | CCCCOc1ccc(S(=O)(=O)N2CC(NCC(O)c3ccc(O)c(NS(C)(=O)=O)c3)C2)cc1 (stereo not shown) [Example 5, N-(5-{2-[1-(4-Butoxy-benzenesulfonyl)-azetidin-3-ylamino]-1-hydroxy-ethyl)-2-hydroxy-phenyl)-methanesulfonamide] |  |  |  |  | 67 to 70 °C | 78% at 10 μM |  | 
11 | CCCCOc1ccc(S(=O)(=O)N2CC(NC[C@H](O)COc3ccc(O)cc3)C2)cc1 [Example 1, 4-{(2S)-3-[1-(4-Butoxy-benzenesulfonyl)-azetidin-3-ylamino]-2-hydroxy-propoxy}-phenol] | 30 nM | 0.82 | 0.39 | 0.49 | 55 to 58 °C |  | 900 nM | 1600 nM
12 | CCCCOc1ccc(S(=O)(=O)N2CCC(NC[C@H](O)COc3cccc4[nH]c(=O)[nH]c34)CC2)cc1 [Example 9, 4-((2S)-3-[1-(4-Butoxy-benzenesulfonyl)-piperidin-4-ylamino]-2-hydroxy-propoxy}-1,3-dihydro-benzoimidazol-2-one] | 500 nM | 0.8 |  |  |  |  |  | 
